Source: ChEMBL document CHEMBL4270619, “Mycobacterial siderophore: A review on chemistry and biology of siderophore and its potential as a target for tuberculosis” (Eur J Med Chem, 2018)

How the values were obtained:
[1] = Efflux ratio of apparent permeability from basolateral to apical over apical to basolateral side in human Caco2 cells; assay type: ADME, cell-based; conditions: caco-2
[2] = Stability in human plasma; assay type: ADME, cell-free
[3] = Stability in rat plasma; assay type: ADME, cell-free

With `CCCC(=O)O[C@H]1[C@@H](F)[C@H](n2cnc3c(N)ncnc32)O[C@@H]1COS(=O)(=O)NC(=O)c1ccccc1O.CCN(CC)CC` the Ratio [1] was 1.5 to 8.5.

With `CC(=O)O[C@H]1[C@@H](F)[C@H](n2cnc3c(N)ncnc32)O[C@@H]1COS(=O)(=O)NC(=O)c1ccccc1O.CCN(CC)CC` the Ratio [1] was 1.5 to 8.5.

Compound `CC(C)C(=O)O[C@H]1[C@@H](F)[C@H](n2cnc3c(N)ncnc32)O[C@@H]1COS(=O)(=O)NC(=O)c1ccccc1O.CCN(CC)CC` has a Ratio [1] of 1.5 to 8.5.

With `CCC(=O)O[C@H]1[C@@H](F)[C@H](n2cnc3c(N)ncnc32)O[C@@H]1COS(=O)(=O)NC(=O)c1ccccc1O.CCN(CC)CC` the Ratio [1] was 1.5 to 8.5.

`CCCCCCCC(=O)O[C@H]1[C@@H](F)[C@H](n2cnc3c(N)ncnc32)O[C@@H]1COS(=O)(=O)NC(=O)c1ccccc1O.CCN(CC)CC` showed a Ratio [1] of 1.5 to 8.5.

With `CCC(CC)C(=O)O[C@H]1[C@@H](F)[C@H](n2cnc3c(N)ncnc32)O[C@@H]1COS(=O)(=O)NC(=O)c1ccccc1O.CCN(CC)CC` the Ratio [1] was 1.5 to 8.5.

For `CCCCC(=O)O[C@H]1[C@@H](F)[C@H](n2cnc3c(N)ncnc32)O[C@@H]1COS(=O)(=O)NC(=O)c1ccccc1O.CCN(CC)CC`, the Ratio [1] was 1.5 to 8.5.

Work on `CCCCCCCCCCCC(=O)O[C@H]1[C@@H](F)[C@H](n2cnc3c(N)ncnc32)O[C@@H]1COS(=O)(=O)NC(=O)c1ccccc1O.CCN(CC)CC` yielded a Ratio [1] of 1.5 to 8.5.

For `CCN(CC)CC.Nc1ncnc2c1ncn2[C@@H]1O[C@H](COS(=O)(=O)NC(=O)c2ccccc2O)[C@@H](O)[C@H]1O`, the Stability [2] was 100% and the Stability [3] was 100%.
